Experimental data: PubChem BioAssay (NCI)
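A five-concentration, 48-hour dose response in 96-well plates underlies each endpoint, interpolated linearly between surrounding concentrations. Abbreviation: GI50, concentration required for 50% inhibition of growth. TGI: concentration producing complete growth inhibition.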

Columns and labels:
Test in all cases: NCI anticancer screen, dose series, 48 h
A549 NSCLC = system: A549 NSCLC
DLD-1 colon = system: DLD-1 colon
DMS 273 small cell lung = system: DMS 273 small cell lung
HCT-116 colon = system: HCT-116 colon
M19-MEL melanoma = system: M19-MEL melanoma
NCI-H460 lung = system: NCI-H460 lung
OVCAR-5 ovarian = system: OVCAR-5 ovarian
RPMI-8226 leukemia = system: RPMI-8226 leukemia
SNB-78 CNS = system: SNB-78 CNS
HOP-18 NSCLC = system: HOP-18 NSCLC
XF 498 CNS = system: XF 498 CNS
BT-549 breast = system: BT-549 breast
HS 578T breast = system: HS 578T breast

SMILES	TGI (A549 NSCLC) [µM]	TGI (DLD-1 colon) [µM]	TGI (DMS 273 small cell lung) [µM]	TGI (HCT-116 colon) [µM]	TGI (M19-MEL melanoma) [µM]	TGI (NCI-H460 lung) [µM]	TGI (OVCAR-5 ovarian) [µM]	TGI (RPMI-8226 leukemia) [µM]	TGI (SNB-78 CNS) [µM]	TGI (HOP-18 NSCLC) [µM]	TGI (XF 498 CNS) [µM]	GI50 (A549 NSCLC) [µM]	GI50 (BT-549 breast) [µM]	TGI (BT-549 breast) [µM]	GI50 (HCT-116 colon) [µM]	GI50 (HS 578T breast) [µM]	TGI (HS 578T breast) [µM]	GI50 (NCI-H460 lung) [µM]	GI50 (OVCAR-5 ovarian) [µM]	GI50 (RPMI-8226 leukemia) [µM]
O=C1C(c2ccccc2)=C(c2ccccc2)C(c2ccc(CCCCCCc3ccc(C4=C(c5ccccc5)C(=O)C(c5ccccc5)=C4c4ccccc4)cc3)cc2)=C1c1ccccc1	> 100	> 100	> 100	> 100	> 100	> 100	> 100	> 100	> 100	–	–	–	–	–	–	–	–	–	–	–
O=c1nc2cc(-c3ccccc3)[nH]c2nn1-c1c(Cl)cc(Cl)cc1Cl	91.7	> 100	> 100	40.1	63.2	> 100	> 100	61.1	> 100	44.9	64.1	–	–	–	–	–	–	–	–	–
COc1ccc(C(=O)C=C2NCCN2)cc1	> 100	> 100	> 100	> 100	> 100	> 100	> 100	> 100	> 100	> 100	–	–	–	–	–	–	–	–	–	–
O=[N+]([O-])c1ccc(Cl)c(C2SCc3nc4ccccc4n32)c1 (centres undefined)	> 100	> 100	> 100	> 100	> 100	81.1	> 100	> 100	> 100	67.7	–	–	–	–	–	–	–	–	–	–
COc1ccc(O)c2c1C(=O)CCCC2=O	> 100	> 100	> 100	> 100	> 100	> 100	> 100	> 100	> 100	–	> 100	–	–	–	–	–	–	–	–	–
COc1cc(C2C(C(=O)Nc3ccccc3)=C(C)NC(C)=C2C(=O)Nc2ccccc2)ccc1O	> 100	> 100	–	> 100	> 100	> 100	> 100	> 100	> 100	> 100	> 100	–	–	–	–	–	–	–	–	–
CN(O)C(=O)Cc1ccccc1	> 100	> 100	> 100	> 100	> 100	> 100	> 100	> 100	> 100	–	> 100	–	–	–	–	–	–	–	–	–
CCc1cccc(C)c1NC(=O)NS(=O)(=O)c1ccc(C)cc1	> 100	> 100	> 100	> 100	> 100	> 100	> 100	> 100	> 100	> 100	> 100	–	–	–	–	–	–	–	–	–
COc1ccc(NC(=O)C(=O)C2NC(=S)NC2=O)c(OC)c1 (centres undefined)	> 100	> 100	> 100	> 100	> 100	> 100	–	> 100	> 100	–	–	–	–	–	–	–	–	–	–	–
Cc1cc(C)nc(NS(=O)(=O)c2ccc(NC(=O)c3cccc4cc5ccccc5nc34)cc2)n1	> 100	98.4	> 100	32.1	79	> 100	> 100	85.7	72.7	–	98.2	–	–	–	–	–	–	–	–	–
COC(=O)C1=C(C(=O)OC)C2(C(=O)OC)OC1(OC)C(C1(C(=O)OC)C(C(=O)OC)=C1C(=O)OC)=C2C(=O)OC (centres undefined)	> 100	> 100	> 100	> 100	> 100	> 100	> 100	> 100	> 100	> 100	> 100	–	–	–	–	–	–	–	–	–
Cc1cc(C)c(C(=O)OC(c2ccccc2)C(c2ccccc2)N2CCOCC2)c(C)c1 (centres undefined)	> 100	> 100	> 100	> 100	> 100	> 100	–	85.3	> 100	> 100	> 100	–	–	–	–	–	–	–	–	–
O=[N+]([O-])c1ccccc1C1N2CCCCC2[C@@H]2c3[nH]c4ccccc4c3CCN12 (some centres undefined)	35.8	36.3	23.4	–	18.5	34.7	40	61.3	32.2	> 100	30.6	–	–	–	–	–	–	–	–	–
O=C1C2=C(c3ccccc31)C(c1ccccc1Cl)N1C(=O)CSC1=N2 (centres undefined)	> 100	> 100	> 100	> 100	> 100	> 100	> 100	> 100	–	–	> 100	–	–	–	–	–	–	–	–	–
O=c1[nH]c(=S)[nH]c(O)c1/C=C1\C=CC=N1	> 100	22	25.3	18.7	> 100	65.5	47	23	67.4	85.7	32.3	–	–	–	–	–	–	–	–	–
COc1cc(Br)c(CC2=NCCc3cc(OC)c(OC)cc32)cc1OC	> 100	> 100	51.3	> 100	> 100	> 100	> 100	73	–	> 100	–	–	–	–	–	–	–	–	–	–
CC1=C2C(c3ccccc3)(c3ccccc3)C3C=CC2(C=N3)N(C(=O)NC2CCCCC2)C1=O (centres undefined)	32.8	–	33.2	29.4	–	–	31.5	37.8	31.9	34.3	–	–	–	–	–	–	–	–	–	–
COc1cccc(C2C(C(=O)Nc3cc(=O)n(C)c(=O)n3C)=C(C)NC(C)=C2C(=O)Nc2cc(=O)n(C)c(=O)n2C)c1O	> 100	> 100	–	–	> 100	> 100	> 100	> 100	> 100	–	> 100	–	–	–	–	–	–	–	–	–
Cc1ccc(Nc2ccc(Nc3ccc(C)cc3)c3c2C(=O)c2c(O)ccc(O)c2C3=O)cc1	> 100	> 100	> 100	> 100	> 100	> 100	> 100	> 100	> 100	–	> 100	–	–	–	–	–	–	–	–	–
COc1cc2c(cc1C)n(O)c(C)c(C(=O)C/C(=N/NC(=O)C[N+](C)(C)C)C(=O)Nc1cccc(Cl)c1C)[n+]2=O	> 100	> 100	> 100	> 100	–	> 100	> 100	> 100	> 100	> 100	> 100	–	–	–	–	–	–	–	–	–

SMILES	TGI (A549 NSCLC) [µM]	TGI (DLD-1 colon) [µM]	TGI (DMS 273 small cell lung) [µM]	TGI (HCT-116 colon) [µM]	TGI (M19-MEL melanoma) [µM]	TGI (NCI-H460 lung) [µM]	TGI (OVCAR-5 ovarian) [µM]	TGI (RPMI-8226 leukemia) [µM]	TGI (SNB-78 CNS) [µM]	TGI (HOP-18 NSCLC) [µM]	TGI (XF 498 CNS) [µM]	GI50 (A549 NSCLC) [µM]	GI50 (BT-549 breast) [µM]	TGI (BT-549 breast) [µM]	GI50 (HCT-116 colon) [µM]	GI50 (HS 578T breast) [µM]	TGI (HS 578T breast) [µM]	GI50 (NCI-H460 lung) [µM]	GI50 (OVCAR-5 ovarian) [µM]	GI50 (RPMI-8226 leukemia) [µM]
CCOC(=O)C(C[Si](C)(C)C)P(=O)(OCC)OCC (centres undefined)	> 100	> 100	> 100	> 100	> 100	> 100	> 100	> 100	> 100	–	> 100	–	–	–	–	–	–	–	–	–
CCC1(CN(C)C)CC/C(=C\c2ccc3c(c2)OCO3)C1=O (centres undefined)	> 100	> 100	> 100	> 100	> 100	–	> 100	> 100	> 100	> 100	–	–	–	–	–	–	–	–	–	–
CCS/C(Nc1ccccc1)=C(\C#N)C(=O)Nc1ccc(OC)cc1	> 100	–	–	16.4	–	34.2	> 100	> 100	–	–	–	5.91	2.8	> 100	1.95	4.07	> 100	3.14	5.52	2.52
C[Si](C)(C)/C=C/CN1C(=O)CCC1O (centres undefined)	> 100	> 100	> 100	> 100	> 100	> 100	> 100	> 100	> 100	> 100	> 100	–	–	–	–	–	–	–	–	–
O=C1/C(=C/c2cccs2)CCC/C1=C\c1cccs1	> 100	–	–	> 100	–	> 100	> 100	> 100	–	–	–	68.3	> 58.3	> 100	> 100	29.2	> 100	> 76.4	> 100	> 100
CCOC(=O)C12CC1(C(=O)OCC)C1CCC2C1 (centres undefined)	> 100	> 100	> 100	> 100	> 100	> 100	> 100	> 100	–	> 100	–	–	–	–	–	–	–	–	–	–
C[Se]C(=O)CC1=C2C=C(F)C=CC2/C(=C\c2ccc(S(C)=O)cc2)C1C (centres undefined)	2.66	–	–	1.64	–	0.526	1.49	6.15	–	–	–	0.0257	0.0581	0.266	0.119	0.0886	2.36	< 0.01	0.114	2.31
CC(=O)/C(C)=N/N/C(N)=N\S(=O)(=O)c1cc(C(=O)Nc2ccccc2)c(Cl)cc1SCc1ccccc1	> 100	–	–	> 100	–	79.3	> 100	> 100	–	–	–	30.5	23.8	> 100	0.337	> 100	> 100	18	> 100	7.01
Cn1c(O)c(C(=O)Nc2ccc([N+](=O)[O-])cc2)c(=O)n(C)c1=S	32.5	> 35.5	–	5.63	> 45.3	24.1	16.4	> 100	–	6.85	–	–	–	–	–	–	5.85	–	–	–
COc1ccc(/C=C(\C#N)c2cc3ccccc3n2C)cc1	> 100	–	–	> 100	–	37.9	> 100	> 100	–	–	–	0.514	0.627	> 100	0.426	0.352	> 100	0.389	0.852	0.388
O=C(/C=C/c1ccco1)Nc1ncc(Cc2ccc(F)cc2)s1	> 100	–	–	> 100	–	> 100	> 100	> 100	–	–	–	0.118	0.368	> 25.3	0.0408	0.124	> 100	0.0397	0.244	0.0721
Fc1ccccc1C1CC(C(c2ccccc2)c2ccccc2)=Nc2ccccc2S1 (centres undefined)	46.4	23.6	20.9	–	–	23.2	33.6	25	–	31.4	27.1	–	–	–	–	–	–	–	–	–
CCC1(OC(C)=O)C(=O)OCc2c1cc1n(c2=O)Cc2cc3ccccc3nc2-1 (centres undefined)	> 100	> 100	–	> 37.5	> 100	7.15	28.9	> 100	> 100	> 100	> 100	–	–	–	–	–	–	–	–	–
COC1=C(OC)CCC(/C(C#N)=C/c2ccc(OC)c(OC)c2)=C1	> 100	> 100	> 100	> 100	> 100	> 100	> 100	> 100	> 100	> 100	–	–	–	–	–	–	–	–	–	–
COc1ccc([C@H]2O[C@@H](CO)C[C@]2(O)c2ccc(OC)cc2)cc1	> 100	–	–	> 100	–	> 100	> 100	> 100	–	–	–	> 100	> 100	> 100	> 100	39.5	> 100	> 100	> 100	> 100
Cc1ccc(NC(=O)C(=O)Cc2nc3ccccc3o2)c(C)c1	> 100	> 100	> 100	> 100	> 100	> 100	> 100	> 100	> 100	–	> 100	–	–	–	–	–	–	–	–	–
CCCCCCCCCC(=O)CC(=O)c1c(O)cccc1O	96.1	> 100	39.1	> 100	> 100	> 100	64	61.2	> 100	93.6	40	–	–	–	–	–	–	–	–	–
CCSC1=CC(=O)c2ccccc2C1=O	41.3	–	–	2.84	–	46.8	32.5	5.65	–	–	–	19.9	14.8	28.3	1.48	13.8	> 69.3	20.5	16.9	1.49
COc1ccccc1/C=C\c1cc(OC)c(OC)c(OC)c1	> 100	> 100	> 100	> 100	> 100	> 100	89.4	43.7	> 100	> 100	48	–	–	–	–	–	–	–	–	–
O=c1cccccc1NCCCCNc1cccccc1=O	> 100	> 100	> 100	> 100	> 100	> 100	> 100	> 100	> 100	> 100	–	–	–	–	–	–	–	–	–	–
